Laboratory results: patent US20260315487A1, “IKK-ALPHA INHIBITORS” (Cancer Research Technology Limited, priority 2023, published 2026)

Tested on: IKKα over IKKβ
Experiment: selectivity for IKKα over IKKβ from the kinase assay
Assay type: biochemical
Excerpt: To examine the pyrrolo[2,3 -b]pyridines as an alternative scaffold, we adopted the AIPP core because it had similar dimensions to 1 SU909, with HBD/HBA motifs positioned at the scaffold extremities to interact with both the hinge region and the G-loop wall of IKKα, a rationale we had previously proposed as the basis for imparting selectivity. A preliminary set of AIPP derivatives was designed to explore its utility as an IKK-targeting scaffold, whilst incorporating additional functionality through which to introduce selectivity for the IKKα isoform (2-4 SU1087, SU1266 and SU1253; FIG. 3). This was achieved by initially adopting two different approaches: either appending a hydrophobic moiety to the pyrrolo[2,3 -b]pyridine motif as a fused form to afford the tricyclic derivatives 2 and 3 SU1266 and SU1087, or as a phenyl substituent to introduce flexibility with the central pyrrolo[2,3 -b]pyridine moiety in 4 SU1253 . […] The pyrrolo[2,3 -b]pyridine was bound to the hinge region in the classical HBA/HBD motif with the GK+3 NH and C═O backbone, whilst the aminoindazole projected towards the top of the pocket to interact with the G-loop (FIG. 4A). […] In both isoforms, the 2 -phenyl moiety was oriented out from the hinge towards the exposed solvent area.
To shift the selectivity profile towards IKKα, we selected 4 SU1253 for structural optimization based on the notion that sigma-bond rotation between the phenyl ring and the pyrrolo[2,3 -b]pyridine would inbuild the flexibility required to engage with the three dimensional array of residues nearby to exploit differences between the two isoforms. Furthermore, this would enable the inclusion of moieties that could also project into solvent and address solubility considerations. Small groups (NH2, OH, OMe, OEt and F) were initially introduced into the phenyl ring to evaluate their impact on the selectivity profile against both IKKs (5 a-g SU1354 -SU1373, Table 2 ). Our goal was to achieve a 1:50 selectivity ratio of IKKα to IKKβ, with a minimum IKKβ inhibitory Ki of 500 nM.

selectivity for IKKα over IKKβ, in words: essential selectivity profile
selectivity for IKKα over IKKβ (ratio of Ki): 209 fold
SMILES: Nc1n[nH]c2ccc(-c3ccnc4[nH]c(-c5ccnc(OCc6ccccc6)c5)cc34)cc12 [6g SU1349, 5-(2-(2-(Benzyloxy)pyridin-4-yl)-1 H-pyrrolo[2,3-b]pyridin-4-yl)-1 H-indazol-3-amine]
